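Compound exposure: 48 hours, 5 concentrations, 96-well plates. The concentration for 50% growth inhibition is given as GI50.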 Calls of active or inactive are those of the source. Cut-off read from the data, not from the text of the source: active = GI50 up to about 1.1 µM and inactive = higher. Non-standard residues stand in square brackets, D forms with d. Residues, ends and D or L forms follow the SMILES beside them. ξ: configuration not given here. *: point of attachment. ξNMeF = CNC(Cc1ccccc1)C(=O)O; NMeV = CN[C@H](C(=O)O)C(C)C; Boc = CC(C)(C)OC(=O)*; OBn = c1ccc(CO*)cc1
Experiments:
Assay in all cases: NCI-60 cell line screen, 48 h
SF-268 = test system: SF-268
RPMI-8226 = test system: RPMI-8226
A549 = test system: A549
HCC 2998 = test system: HCC 2998
SK-MEL-2 = test system: SK-MEL-2
CAKI-1 = test system: CAKI-1
KM12 = test system: KM12
UO-31 = test system: UO-31
NCI/ADR-RES = test system: NCI/ADR-RES
CCRF-CEM = test system: CCRF-CEM
DLD-1 = test system: DLD-1
M19-MEL = test system: M19-MEL
COLO 205 = test system: COLO 205
SK-MEL-28 = test system: SK-MEL-28
DMS-273 = test system: DMS-273
SK-MEL-5 = test system: SK-MEL-5
SW-620 = test system: SW-620
HT-29 = test system: HT-29
SK-OV-3 = test system: SK-OV-3
U-251 = test system: U-251
HOP-18 = test system: HOP-18
A498 = test system: A498
XF498 = test system: XF498
SF-295 = test system: SF-295
Malme-3M = test system: Malme-3M
OVCAR-3 = test system: OVCAR-3
NCI-H460 = test system: NCI-H460
NCI-H23 = test system: NCI-H23
MCF7 = test system: MCF7
UACC-257 = test system: UACC-257
HOP-92 = test system: HOP-92
HOP-62 = test system: HOP-62
SNB-19 = test system: SNB-19
KM-20L2 = test system: KM-20L2
LOX IMVI = test system: LOX IMVI
SN12C = test system: SN12C
SF-539 = test system: SF-539
SNB-75 = test system: SNB-75
HCT-116 = test system: HCT-116
NCI-H522 = test system: NCI-H522
NCI-H226 = test system: NCI-H226
MOLT-4 = test system: MOLT-4
OVCAR-4 = test system: OVCAR-4
IGROV-1 = test system: IGROV-1
RXF 393 = test system: RXF 393
OVCAR-5 = test system: OVCAR-5
SNB-78 = test system: SNB-78
EKVX = test system: EKVX
HCT-15 = test system: HCT-15
UACC-62 = test system: UACC-62
OVCAR-8 = test system: OVCAR-8
DMS-114 = test system: DMS-114
K562 = test system: K562
LXFL 529 = test system: LXFL 529
786-0 = test system: 786-0
SR = test system: SR
TK-10 = test system: TK-10
HL-60 = test system: HL-60

Question: What does the source list for `COC1OCC(O)C(NC(=O)N(C)N=O)C1O` (centres undefined)?
Answer: GI50 (SF-268): > 100 µM (inactive); GI50 (RPMI-8226): > 100 µM (inactive); GI50 (A549): > 100 µM (inactive); GI50 (HCC 2998): > 100 µM (inactive); GI50 (SK-MEL-2): > 100 µM (inactive); GI50 (CAKI-1): > 100 µM (inactive); GI50 (KM12): > 100 µM (inactive); GI50 (UO-31): > 100 µM (inactive); GI50 (NCI/ADR-RES): > 100 µM (inactive); GI50 (CCRF-CEM): > 100 µM (inactive); GI50 (DLD-1): > 100 µM (inactive); GI50 (M19-MEL): > 100 µM (inactive); GI50 (COLO 205): > 100 µM (inactive); GI50 (SK-MEL-28): > 100 µM (inactive); GI50 (DMS-273): > 100 µM (inactive); GI50 (SK-MEL-5): > 100 µM (inactive); GI50 (SW-620): > 100 µM (inactive); GI50 (HT-29): > 100 µM (inactive); GI50 (SK-OV-3): > 100 µM (inactive); GI50 (U-251): > 100 µM (inactive); GI50 (HOP-18): > 100 µM (inactive); GI50 (A498): > 100 µM (inactive); GI50 (XF498): > 100 µM (inactive); GI50 (SF-295): > 100 µM (inactive); GI50 (Malme-3M): > 100 µM (inactive); GI50 (OVCAR-3): > 100 µM (inactive); GI50 (NCI-H460): > 100 µM (inactive); GI50 (NCI-H23): > 100 µM (inactive); GI50 (MCF7): > 100 µM (inactive); GI50 (UACC-257): > 100 µM (inactive); GI50 (HOP-92): > 100 µM (inactive); GI50 (HOP-62): > 100 µM (inactive); GI50 (SNB-19): > 100 µM (inactive); GI50 (KM-20L2): > 100 µM (inactive); GI50 (LOX IMVI): > 100 µM (inactive); GI50 (SN12C): > 100 µM (inactive); GI50 (SF-539): > 100 µM (inactive); GI50 (SNB-75): > 100 µM (inactive); GI50 (HCT-116): > 100 µM (inactive); GI50 (NCI-H522): > 100 µM (inactive); GI50 (NCI-H226): > 100 µM (inactive); GI50 (MOLT-4): > 100 µM (inactive); GI50 (OVCAR-4): > 100 µM (inactive); GI50 (IGROV-1): > 100 µM (inactive); GI50 (RXF 393): > 100 µM (inactive); GI50 (OVCAR-5): > 100 µM (inactive); GI50 (SNB-78): > 100 µM (inactive); GI50 (EKVX): > 100 µM (inactive); GI50 (HCT-15): > 100 µM; GI50 (UACC-62): > 100 µM (inactive); GI50 (OVCAR-8): > 100 µM (inactive); GI50 (DMS-114): > 100 µM (inactive); GI50 (K562): > 100 µM (inactive)

Question: Which GI50 (SF-268) does the source give for `CC(C)[C@@H](C(=O)N(C)[C@H](C(=O)N1CCC[C@H]1C(=O)OCc1ccccc1)C(C)C)N(C)C(=O)C(Cc1ccccc1)N(C)C(=O)[C@H](NC(=O)OC(C)(C)C)C(C)C` (some centres undefined) (Boc-[dV][ξNMeF][NMeV][NMeV]P-OBn) here?
Answer: The GI50 was > 31.6 µM (inactive).

Question: What about the GI50 (RPMI-8226) of the same compound?
Answer: The GI50 was 10.4 µM (inactive).

Question: What about the GI50 (A549) of the same compound?
Answer: Its GI50 is > 31.6 µM (inactive).

Question: What about the GI50 (HCC 2998) of the same compound?
Answer: The GI50 was > 10 µM (inactive).

Question: What about the GI50 (SK-MEL-2) of the same compound?
Answer: The GI50 was > 31.6 µM (inactive).

Question: What about the GI50 (CAKI-1) of the same compound?
Answer: Its GI50 is > 31.6 µM (inactive).

Question: And the GI50 (KM12)?
Answer: Its GI50 is > 10 µM (inactive).

Question: What about the GI50 (UO-31) of the same compound?
Answer: Its GI50 is > 31.6 µM (inactive).

Question: And the GI50 (CCRF-CEM)?
Answer: Its GI50 is > 31.6 µM (inactive).

Question: What about the GI50 (DLD-1) of the same compound?
Answer: Its GI50 is > 31.6 µM (inactive).

Question: What about the GI50 (LXFL 529) of the same compound?
Answer: Its GI50 is 42.9 µM (inactive).

Question: What about the GI50 (M19-MEL) of the same compound?
Answer: Its GI50 is > 31.6 µM (inactive).

Question: What about the GI50 (COLO 205) of the same compound?
Answer: The GI50 was > 82.6 µM (inactive).

Question: What about the GI50 (786-0) of the same compound?
Answer: Its GI50 is > 46.8 µM (inactive).

Question: And the GI50 (SK-MEL-28)?
Answer: The GI50 was > 31.6 µM (inactive).

Question: And the GI50 (DMS-273)?
Answer: Its GI50 is > 31.6 µM (inactive).

Question: And the GI50 (SK-MEL-5)?
Answer: Its GI50 is 15.6 µM (inactive).

Question: And the GI50 (SW-620)?
Answer: Its GI50 is > 31.6 µM (inactive).

Question: What about the GI50 (HT-29) of the same compound?
Answer: The GI50 was > 31.6 µM (inactive).

Question: What about the GI50 (SK-OV-3) of the same compound?
Answer: The GI50 was > 31.6 µM (inactive).

Question: And the GI50 (U-251)?
Answer: Its GI50 is > 31.6 µM (inactive).

Question: What about the GI50 (HOP-18) of the same compound?
Answer: Its GI50 is > 72.6 µM (inactive).

Question: And the GI50 (A498)?
Answer: Its GI50 is > 31.6 µM (inactive).

Question: And the GI50 (XF498)?
Answer: Its GI50 is 13.4 µM (inactive).

Question: What about the GI50 (SF-295) of the same compound?
Answer: The GI50 was 26.5 µM (inactive).

Question: What about the GI50 (Malme-3M) of the same compound?
Answer: Its GI50 is > 84.9 µM (inactive).

Question: What about the GI50 (OVCAR-3) of the same compound?
Answer: The GI50 was > 34.5 µM (inactive).

Question: What about the GI50 (NCI-H460) of the same compound?
Answer: The GI50 was > 31.6 µM (inactive).

Question: What about the GI50 (UACC-257) of the same compound?
Answer: Its GI50 is > 31.6 µM (inactive).

Question: And the GI50 (HOP-92)?
Answer: The GI50 was 8.34 µM (inactive).

Question: And the GI50 (HOP-62)?
Answer: The GI50 was > 31.6 µM (inactive).

Question: What about the GI50 (SNB-19) of the same compound?
Answer: Its GI50 is > 31.6 µM (inactive).

Question: What about the GI50 (KM-20L2) of the same compound?
Answer: Its GI50 is > 31.6 µM (inactive).

Question: And the GI50 (SR)?
Answer: The GI50 was 19.7 µM (inactive).

Question: And the GI50 (LOX IMVI)?
Answer: The GI50 was > 31.6 µM (inactive).

Question: And the GI50 (SF-539)?
Answer: Its GI50 is > 31.6 µM (inactive).

Question: And the GI50 (SNB-75)?
Answer: Its GI50 is 14 µM (inactive).

Question: What about the GI50 (HCT-116) of the same compound?
Answer: Its GI50 is > 31.6 µM (inactive).

Question: And the GI50 (NCI-H226)?
Answer: The GI50 was > 100 µM (inactive).

Question: What about the GI50 (MOLT-4) of the same compound?
Answer: Its GI50 is 10.7 µM (inactive).

Question: What about the GI50 (IGROV-1) of the same compound?
Answer: Its GI50 is > 31.6 µM (inactive).

Question: And the GI50 (RXF 393)?
Answer: Its GI50 is > 31.6 µM (inactive).

Question: What about the GI50 (OVCAR-5) of the same compound?
Answer: Its GI50 is > 31.6 µM (inactive).

Question: And the GI50 (EKVX)?
Answer: The GI50 was > 31.6 µM (inactive).

Question: What about the GI50 (TK-10) of the same compound?
Answer: Its GI50 is > 31.6 µM (inactive).

Question: What about the GI50 (HCT-15) of the same compound?
Answer: Its GI50 is over 31.6 µM.

Question: What about the GI50 (UACC-62) of the same compound?
Answer: Its GI50 is > 31.6 µM (inactive).

Question: What about the GI50 (OVCAR-8) of the same compound?
Answer: Its GI50 is > 31.6 µM (inactive).

Question: What about the GI50 (HL-60) of the same compound?
Answer: The GI50 was 19 µM (inactive).

Question: What about the GI50 (DMS-114) of the same compound?
Answer: Its GI50 is 20.6 µM (inactive).

Question: What about the GI50 (K562) of the same compound?
Answer: Its GI50 is 13.5 µM (inactive).

Reference: ChEMBL document CHEMBL1201862, “PubChem BioAssay data set” (2004)
